Assay results: PubChem BioAssay AID1259407 (Chemical Carcinogenesis Research Information System (CCRIS), 2018)
The source made the active and inactive calls. No rule for the calls is given here.

Test system: CCRIS mutagenicity, Ames/micronucleus/aberration tests
Experiment: CCRIS mutagenicity studies
[1] = Test System: AMES SALMONELLA TYPHIMURIUM, Strain/Indicator: TA98, Metabolic Activation: NONE, Method: STANDARD PLATE
[2] = Test System: AMES SALMONELLA TYPHIMURIUM, Strain/Indicator: TA100, Metabolic Activation: NONE, Method: STANDARD PLATE
[3] = Test System: AMES SALMONELLA TYPHIMURIUM, Strain/Indicator: TA1535, Metabolic Activation: NONE, Method: STANDARD PLATE
[4] = Test System: AMES SALMONELLA TYPHIMURIUM, Strain/Indicator: TA1537, Metabolic Activation: NONE, Method: STANDARD PLATE
[5] = Test System: AMES SALMONELLA TYPHIMURIUM, Strain/Indicator: TA1538, Metabolic Activation: NONE, Method: STANDARD PLATE

## CCCCC(CC)COC(=O)C(C#N)=C(c1ccccc1)c1ccccc1 (stereo not given)
Test System: AMES SALMONELLA TYPHIMURIUM, Strain/Indicator: TA98, Metabolic Activation: HAMSTER, LIVER, S-9, AROCLOR 1254 (10%), Method: PREINCUBATION
  mutagenic call: inactive; negative
Test System: AMES SALMONELLA TYPHIMURIUM, Strain/Indicator: TA98, Metabolic Activation: NONE, Method: PREINCUBATION
  mutagenic call: inactive; negative
Test System: AMES SALMONELLA TYPHIMURIUM, Strain/Indicator: TA98, Metabolic Activation: RAT, LIVER, S-9, AROCLOR 1254 (10%), Method: PREINCUBATION
  mutagenic call: inactive; negative
Test System: AMES SALMONELLA TYPHIMURIUM, Strain/Indicator: TA100, Metabolic Activation: HAMSTER, LIVER, S-9, AROCLOR 1254 (10%), Method: PREINCUBATION
  mutagenic call: inactive; negative
Test System: AMES SALMONELLA TYPHIMURIUM, Strain/Indicator: TA100, Metabolic Activation: NONE, Method: PREINCUBATION
  mutagenic call: inactive; negative
Test System: AMES SALMONELLA TYPHIMURIUM, Strain/Indicator: TA100, Metabolic Activation: RAT, LIVER, S-9, AROCLOR 1254 (10%), Method: PREINCUBATION
  mutagenic call: inactive; negative
Test System: AMES SALMONELLA TYPHIMURIUM, Strain/Indicator: TA1535, Metabolic Activation: HAMSTER, LIVER, S-9, AROCLOR 1254 (10%), Method: PREINCUBATION
  mutagenic call: inactive; negative
Test System: AMES SALMONELLA TYPHIMURIUM, Strain/Indicator: TA1535, Metabolic Activation: NONE, Method: PREINCUBATION
  mutagenic call: inactive; negative
Test System: AMES SALMONELLA TYPHIMURIUM, Strain/Indicator: TA1535, Metabolic Activation: RAT, LIVER, S-9, AROCLOR 1254 (10%), Method: PREINCUBATION
  mutagenic call: inactive; negative
Test System: AMES SALMONELLA TYPHIMURIUM, Strain/Indicator: TA1537, Metabolic Activation: HAMSTER, LIVER, S-9, AROCLOR 1254 (10%), Method: PREINCUBATION
  mutagenic call: inactive; negative
Test System: AMES SALMONELLA TYPHIMURIUM, Strain/Indicator: TA1537, Metabolic Activation: NONE, Method: PREINCUBATION
  mutagenic call: inactive; negative
Test System: AMES SALMONELLA TYPHIMURIUM, Strain/Indicator: TA1537, Metabolic Activation: RAT, LIVER, S-9, AROCLOR 1254 (10%), Method: PREINCUBATION
  mutagenic call: inactive; negative
Test System: MOUSE LYMPHOMA, Strain/Indicator: L5178Y (TK+/TK-), Metabolic Activation: NONE, Method: SUSPENSION/PLATE
  mutagenic call: inactive; negative
Test System: MOUSE LYMPHOMA, Strain/Indicator: L5178Y (TK+/TK-), Metabolic Activation: RAT, LIVER, S-9, AROCLOR 1254, Method: SUSPENSION/PLATE
  mutagenic call: inactive; negative

## Cc1ccc2n[nH]nc2c1
Test System: AMES SALMONELLA TYPHIMURIUM, Strain/Indicator: TA97, Metabolic Activation: NONE
  mutagenic call: inactive; negative
Test System: AMES SALMONELLA TYPHIMURIUM, Strain/Indicator: TA97, Metabolic Activation: RAT, LIVER, S-9, AROCLOR 1254
  mutagenic call: inactive; negative
Test System: AMES SALMONELLA TYPHIMURIUM, Strain/Indicator: TA98, Metabolic Activation: NONE
  mutagenic call: inactive; negative
Test System: AMES SALMONELLA TYPHIMURIUM, Strain/Indicator: TA98, Metabolic Activation: RAT, LIVER, S-9, AROCLOR 1254
  mutagenic call: inactive; negative
Test System: AMES SALMONELLA TYPHIMURIUM, Strain/Indicator: TA100, Metabolic Activation: NONE
  mutagenic call: inactive; negative
Test System: AMES SALMONELLA TYPHIMURIUM, Strain/Indicator: TA100, Metabolic Activation: RAT, LIVER, S-9, AROCLOR 1254
  mutagenic call: inactive; negative
Test System: AMES SALMONELLA TYPHIMURIUM, Strain/Indicator: TA102, Metabolic Activation: NONE
  mutagenic call: inactive; negative
Test System: AMES SALMONELLA TYPHIMURIUM, Strain/Indicator: TA102, Metabolic Activation: RAT, LIVER, S-9, AROCLOR 1254
  mutagenic call: inactive; negative

## CC(=O)[C@H]1CC[C@H]2[C@@H]3C=CC4=CC(=O)CC[C@@]4(C)[C@@H]3CC[C@]12C
End Point: IN VIVO MICRONUCLEUS, Test System: HEPATOCYTES, Species: RAT, Strain/Sex: SPRAGUE-DAWLEY/FEMALE, Route: INTRAGASTRIC (GAVAGE)
  mutagenic call: inactive; negative

## C=C1/C(=C\C=C2/CCC[C@]3(C)[C@@H]([C@H](C)CC[C@@H](O)C(C)C)CC[C@@H]23)C[C@@H](O)C[C@@H]1O
[1]
  mutagenic call: inactive; negative
Test System: AMES SALMONELLA TYPHIMURIUM, Strain/Indicator: TA98, Metabolic Activation: RAT, LIVER, S-9, PHENOBARBITAL AND 5,6-BENZOFLAVONE, Method: PREINCUBATION
  mutagenic call: inactive; negative
[2]
  mutagenic call: inactive; negative
Test System: AMES SALMONELLA TYPHIMURIUM, Strain/Indicator: TA100, Metabolic Activation: RAT, LIVER, S-9, PHENOBARBITAL AND 5,6-BENZOFLAVONE, Method: PREINCUBATION
  mutagenic call: inactive; negative
[3]
  mutagenic call: inactive; negative
Test System: AMES SALMONELLA TYPHIMURIUM, Strain/Indicator: TA1535, Metabolic Activation: RAT, LIVER, S-9, PHENOBARBITAL AND 5,6-BENZOFLAVONE, Method: PREINCUBATION
  mutagenic call: inactive; negative
[4]
  mutagenic call: inactive; negative
Test System: AMES SALMONELLA TYPHIMURIUM, Strain/Indicator: TA1537, Metabolic Activation: RAT, LIVER, S-9, PHENOBARBITAL AND 5,6-BENZOFLAVONE, Method: PREINCUBATION
  mutagenic call: inactive; negative
[5]
  mutagenic call: inactive; negative
Test System: AMES SALMONELLA TYPHIMURIUM, Strain/Indicator: TA1538, Metabolic Activation: RAT, LIVER, S-9, PHENOBARBITAL AND 5,6-BENZOFLAVONE, Method: PREINCUBATION
  mutagenic call: inactive; negative
Test System: E. COLI, Strain/Indicator: WP2 UVRA, Metabolic Activation: NONE, Method: STANDARD PLATE
  mutagenic call: inactive; negative
Test System: E. COLI, Strain/Indicator: WP2 UVRA, Metabolic Activation: RAT, LIVER, S-9, PHENOBARBITAL AND 5,6-BENZOFLAVONE, Method: PREINCUBATION
  mutagenic call: inactive; negative

## O=[N+]([O-])c1cc2ccccc2c2c([N+](=O)[O-])cccc12
Test System: AMES SALMONELLA TYPHIMURIUM, Strain/Indicator: TA98(1,8-DNP6), Metabolic Activation: NONE, Method: STANDARD PLATE
  mutagenic call: active; positive
Test System: AMES SALMONELLA TYPHIMURIUM, Strain/Indicator: TA98(NR), Metabolic Activation: NONE, Method: STANDARD PLATE
  mutagenic call: active; positive
[1]
  mutagenic call: active; positive
[2]
  mutagenic call: active; positive
Test System: AMES SALMONELLA TYPHIMURIUM, Strain/Indicator: YG1021, Metabolic Activation: NONE, Method: STANDARD PLATE
  mutagenic call: active; positive
Test System: AMES SALMONELLA TYPHIMURIUM, Strain/Indicator: YG1024, Metabolic Activation: NONE, Method: STANDARD PLATE
  mutagenic call: active; positive
Test System: AMES SALMONELLA TYPHIMURIUM, Strain/Indicator: YG1026, Metabolic Activation: NONE, Method: STANDARD PLATE
  mutagenic call: active; positive
Test System: AMES SALMONELLA TYPHIMURIUM, Strain/Indicator: YG1029, Metabolic Activation: NONE, Method: STANDARD PLATE
  mutagenic call: active; positive

## CCC[CH2][Sn]([Cl])([Cl])[CH2]CCC
Test System: AMES SALMONELLA TYPHIMURIUM, Strain/Indicator: TA98, Metabolic Activation: NONE, Method: SUSPENSION/PLATE
  mutagenic call: inactive; negative
Test System: AMES SALMONELLA TYPHIMURIUM, Strain/Indicator: TA100, Metabolic Activation: NONE, Method: SUSPENSION/PLATE
  mutagenic call: inactive; negative

## C[C@H](CCC(=O)NCCS(=O)(=O)O)[C@H]1CC[C@H]2[C@@H]3C[C@H](O)[C@@H]4C[C@H](O)CC[C@]4(C)[C@H]3CC[C@]12C
[1]
  mutagenic call: inactive; negative
Test System: AMES SALMONELLA TYPHIMURIUM, Strain/Indicator: TA98, Metabolic Activation: RAT, LIVER, S-9, AROCLOR 1254, Method: STANDARD PLATE
  mutagenic call: inactive; negative
[2]
  mutagenic call: inactive; negative
Test System: AMES SALMONELLA TYPHIMURIUM, Strain/Indicator: TA100, Metabolic Activation: RAT, LIVER, S-9, AROCLOR 1254, Method: STANDARD PLATE
  mutagenic call: inactive; negative
[3]
  mutagenic call: inactive; negative
Test System: AMES SALMONELLA TYPHIMURIUM, Strain/Indicator: TA1535, Metabolic Activation: RAT, LIVER, S-9, AROCLOR 1254, Method: STANDARD PLATE
  mutagenic call: inactive; negative
[4]
  mutagenic call: inactive; negative
Test System: AMES SALMONELLA TYPHIMURIUM, Strain/Indicator: TA1537, Metabolic Activation: RAT, LIVER, S-9, AROCLOR 1254, Method: STANDARD PLATE
  mutagenic call: inactive; negative
[5]
  mutagenic call: inactive; negative
Test System: AMES SALMONELLA TYPHIMURIUM, Strain/Indicator: TA1538, Metabolic Activation: RAT, LIVER, S-9, AROCLOR 1254, Method: STANDARD PLATE
  mutagenic call: inactive; negative
